Experiments:
[1] = In vivo metabolism of [14C]COMPOUND I in Sprague-Dawley rats, single oral 5 mg/kg dose; set-up: species or system rat; conditions: for Chromatographic Distribution of Radioactivity in Pooled Plasma Samples: 5 mg/kg oral [14C]COMPOUND I
Experimental: Dose preparation, animal dosing, and specimen collection were performed at Wyeth Research, Collegeville, Pa. The vehicle contained 2% (w/v) polysorbate 80, NF and 0.5% (w/v) methylcellulose (4000 cps) in water. [^14C]COMPOUND I trisuccinate salt (36.6 mg) and non-labeled COMPOUND I trisuccinate salt (26.7 mg) were dissolved in 1 mL of ethanol and suspended in 35 mL of the vehicle with stirring. The target [^14C]COMPOUND I concentration was approximately 1 mg/mL as free base and 70 μCi/mL with a target specific activity of 70 μCi/mg. Three pre- and post-dose aliquots (100 μL) were taken for the determination of radiochemical purity, drug and radioactivity concentrations and specific activity (see below).
Male rats weighing from 323 to 354 g and female rats weighing from 270 to 317 g at the time of dosing were purchased from Charles River Laboratories (Wilmington, Mass.). Non-fasted rats were given a single 5 mg/kg (˜350 μCi/kg) dose of [^14C]COMPOUND I at a volume of 5.0 mL/kg via intragastric gavage. Three rats were dosed for each time point. Animals were provided Purina rat chow and water ad libitum, and were kept individually in metabolism cages.
Blood samples were collected at 1, 3, 6 and 24 hr from male rats and at 1 and 3 hr from female rats after dose administration by cardiac puncture into tubes containing EDTA as the anticoagulant and placing them on ice. Triplicate aliquots (50 μL) of whole blood were removed and plasma was immediately obtained from the remaining blood by centrifugation at 4° C. Whole brain samples were collected after saline perfusion at 1, 3, 6 and 24 hr post-dose from male rats and at 1 and 3 hr post-dose from female rats. Urine samples were collected on dry ice from male rats at intervals of 0-6 and 6-24 hr post-dose. Feces were collected from male rats at 0-24 hr post-dose at room temperature. The biological specimens and aliquots of the dose suspension were stored at approximately −70° C. until analysis.
Triplicate aliquots of diluted dose (20 μL), dose fractions (10 μL), and plasma (50 μL) and urine (100 μL) from individual rats were analyzed for radioactivity concentrations. Radioactivity determinations were made with a Tri-Carb Model 3100 TR liquid scintillation counter (LSC) (Perkin Elmer) using 5 mL of Ultima Gold as the scintillation fluid.
Brain and fecal samples from individual rats were weighed and homogenized in water at a volume-to-weight ratio of about 3:1 and 5:1, respectively, with a Polytron PT homogenizer at ice-cold temperature. Duplicate aliquots of blood (50 μL), brain homogenates (0.2 g) and fecal homogenates (0.2 g) were placed on Combusto-cones with Combusto-pads and allowed to dry overnight. Samples were combusted with a model 307 Tri-Carb Sample Oxidizer, equipped with an Oximate-80 Robotic Automatic Sampler (Perkin Elmer). The liberated ^14CO2 was trapped with Carbo-Sorb E carbon dioxide absorber, mixed with PermaFluor® E^+ liquid scintillation cocktail, and counted in a Tri-Carb Model 3100 TR/LL liquid scintillation counter (Perkin Elmer).
Plasma samples were pooled by equal volumes from three animals at each time point (1, 3, 6 and 24 hr for males; 1 and 3 hr for females). Aliquots of 2 mL of pooled plasma were mixed with 2 mL of acetonitrile, placed on ice for about 10 min, and then centrifuged at 4° C. The supernatant was transferred to a clean tube. The protein pellets were extracted two more times with 4 mL of acetonitrile. The supernatants from precipitation and extraction of each sample were pooled, mixed, and evaporated at 22° C. under nitrogen in a TurboVap LV evaporator (Caliper Life Sciences, Hopkinton, Mass.) to about 1.0 mL. The concentrated extract was centrifuged, the supernatant volume measured and the extraction efficiency was determined by analyzing duplicate 10 μL aliquots for radioactivity concentrations.

[2] = Metabolite profiling in liver microsomes and S9; format: in vitro ADME, rat, dog, monkey, human; conditions: liver microsomes and S9, 10 μM COMPOUND I, 30 min; species letters not defined
Experimental: Microsomal incubations for metabolite profiling were similar to those described above for intrinsic clearance determination (see Table 1). Aliquots of COMPOUND I (10 μL), dissolved in DMSO:methanol (1:9), were added to a 96-well plate containing phosphate buffer, and MgCl2 and the liver microsomes at 37° C. using the same automation apparatus as for the stability study described hereinabove. The reactions were initiated by the addition of the UDPGA and NADPH generating system. The final incubation volume for all samples was 1 mL and the length of incubation was 30 min. […] Three 250 μL aliquots were transferred to a 96-well plate containing 900 μL acetonitrile to precipitate the protein. […] The samples were then reconstituted in 150 μL of 20% methanol in water. The three aliquots for each sample were pooled and analyzed by LC/MS.
S9 incubation buffer and cofactors were chosen to allow N-acetylation and carbamoyl glucuronidation in addition to oxidative and glucuronidation pathways possible in liver microsomes. Incubations of sulfamethazine and SCA-136 with liver S9 were used as positive controls for N-acetylation and carbamoyl glucuronidation, respectively. Following a 30 min. incubation, 750 μL from each sample were added to 900 μL acetonitrile. Following centrifugation and evaporation of the supernatant, the samples were reconstituted in 450 μL of 20% methanol in water for analysis by HPLC/UV and LC/MS (see below).
The HPLC system used for mass spectrometric analysis was an Agilent 1100 HPLC (Agilent Technologies, Palo Alto, Calif.) equipped with a binary pump and a diode array UV detector. The UV detector was set to monitor 190-400 nm. Separations were accomplished on a Luna C18 column (150×2.1 mm, 5 μm) (Phenomenex Incorporated, Torrance, Calif.).
The mass spectrometer used for metabolite characterization was a Finnigan LCQ Deca ion trap mass spectrometer (Thermo Electron Corp.). […] Full scan and data dependent MS2 and MS3 mass spectra were recorded. Finnigan Xcalibur software (version 1.3) was used for control of equipment and recording of data from UV and LC/MS analyses.
Chromatographic profiles of COMPOUND I (10 μM) metabolites in incubations with liver microsomes in the presence of NADPH are presented in FIG. 1. Chromatographic profiles of COMPOUND I (10 μM) metabolites in incubations with liver microsomes in the presence of NADPH and UDPGA are presented in FIG. 2. Chromatographic profiles of COMPOUND I (10 μM) metabolites in incubations with liver S9 in the presence of NADPH, UDPGA and acetyl coenzyme A (CoA) are presented in FIG. 3. In incubations containing NADPH, UDPGA and acetyl CoA, fourteen Phase I metabolites (M1, M6, M8, M12, M13, M14, M15, M16, M17, M18, M20, M21, M22 and M23) and six Phase II metabolites (M2, M3, M5, M7, M9 and M10) were observed. In incubations without cofactors, no metabolites were observed.
LC/MS analysis was conducted on extracts of mouse, rat, monkey and human liver microsomes and S9. The mass spectral data for the characterized COMPOUND I metabolites are discussed below.

[3] = Metabolite characterization in cryopreserved hepatocytes; conditions: hepatocyte incubations, 20 μM; R, rat; D, dog; H, human; Media = decomposition product observed in media control
Experimental: Pooled male rat, dog, and mixed male and female human cryopreserved hepatocytes were used in this study. The cryopreserved hepatocytes (two vials from each species; three to five million viable cells per vial) were thawed in a 37° C. water bath with gentle shaking until the ice was almost melted. The suspensions from the two individual vials of the same species were immediately transferred to a 50 mL centrifuge tube containing pre-warmed thawing media at 37° C. with gentle handshaking to prevent the cells from settling. The cell suspension was centrifuged at 50 g for 5 min at 4° C. Supernatants were discarded and the pellets were resuspended in pre-warmed incubation media (8 mL) at 37° C. […] [^14C]COMPOUND I (20 μM) was incubated in a 12-well plate containing hepatocyte suspensions at 1.0 mL per well in duplicate (≧1 million viable cells/well) at 37° C. for 1 or 4 hr in the presence of 5% CO2:95% O2. Control incubations without hepatocytes were also run under the same conditions. Positive controls containing [^14C]7-ethoxycoumarin (100 μM) were also incubated under the same conditions, but only for 1 hr. At the end of the incubations, reactions were stopped by adding acetonitrile with 2% acetic acid (1 mL), mixed for 10 min, followed by centrifugation at 4000 rpm for 10 min at 4° C. Aliquots (50 μL) of supernatants were analyzed by HPLC with UV and radioactivity flow detection for metabolite profiling, and by LC/MS for metabolite identification as described in below. To determine extraction recovery, aliquots (20 μL) of supernatants were analyzed for radioactivity content utilizing a Packard Tri-Carb Model 3100 TR liquid scintillation counter and 5 mL of Ultima Gold.
The HPLC system used for mass spectrometric analysis was a Waters Alliance model 2695 HPLC system (Waters Corp). It was equipped with a built-in autosampler and a model 996 diode array UV detector. The UV detector was set to monitor 210-400 nm. The HPLC conditions were the same as those described hereinabove with the following exceptions. […]

SMILES | Chromatographic Distribution of Radioactivity in Pooled Plasma Samples ([1]; female rats, 1 hr) [%] | Chromatographic Distribution of Radioactivity in Pooled Plasma Samples ([1]; female rats, 3 hr) [%] | percent of total plasma radioactivity ([1]; male and female rats, range over time points, 5 mg/kg oral) | Chromatographic Distribution of Radioactivity in Pooled Plasma Samples ([1]; male rats, 1 hr) [%] | Chromatographic Distribution of Radioactivity in Pooled Plasma Samples ([1]; male rats, 3 hr) [%] | Chromatographic Distribution of Radioactivity in Pooled Plasma Samples ([1]; male rats, 6 hr) [%] | Species (in which the metabolite was characterized) [2] | Source [3]
COc1cc(N2CCN(C3CCN(c4ccc(OC5OC(C(=O)O)C(O)C(O)C5O)c5cccnc45)CC3)CC2)c2ncccc2c1 (stereo not drawn) [Metabolite M5, Hydroxy desfluoro COMPOUND I glucuonide] | 9.6 | 16.2 | 9.6-17.1% | 15.2 | 17.1 | 16.5 | R, D, M, H | 
COc1cc(N2CCN(C3CCN(c4ccc(O)c5cccnc45)CC3)CC2)c2ncccc2c1 [Metabolite M18, Hydroxy desfluoro COMPOUND I] |  |  |  |  |  |  | R, D, M, H | D (trace), H
